Data on 26 compounds can be found in patent publication US8232284B2, “Heteroaryloxy quinazoline derivative” (MSD K. K., priority 2007, dated 2012).

Counter-ions that a name gives are not always drawn.

The first assay addresses T1, recombinant human liver GK (Homo sapiens, UniProt P35557).
T1 construct: made in house; host or cells: E. coli
T1 sequence (P35557 1-466 isoform P35557-2): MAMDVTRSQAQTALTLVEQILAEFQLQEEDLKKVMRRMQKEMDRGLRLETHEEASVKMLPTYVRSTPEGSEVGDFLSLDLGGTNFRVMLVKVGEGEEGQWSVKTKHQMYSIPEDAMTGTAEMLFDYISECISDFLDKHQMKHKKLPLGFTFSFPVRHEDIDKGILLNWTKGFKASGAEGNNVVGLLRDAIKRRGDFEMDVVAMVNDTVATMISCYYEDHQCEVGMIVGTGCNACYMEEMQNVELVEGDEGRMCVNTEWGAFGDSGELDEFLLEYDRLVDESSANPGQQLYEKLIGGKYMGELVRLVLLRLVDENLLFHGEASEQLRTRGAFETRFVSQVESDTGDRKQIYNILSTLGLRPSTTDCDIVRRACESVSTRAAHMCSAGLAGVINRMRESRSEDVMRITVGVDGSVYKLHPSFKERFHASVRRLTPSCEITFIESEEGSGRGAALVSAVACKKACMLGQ
Description: Glucokinase-activating effect (Thio-NADH coupled assay with G6PDH, 2.5 mM glucose). It counts as biochemical. To be noted: OD level of DMSO control set as 100%; final glucose concentration 2.5 mM; 30° C. An excerpt:
The excellent glucokinase-activating effect of the compounds of the formula (I) may be determined by a method described in literature (for example, Diabetes, Vol. 45, pp. 1671-1677, 1996), or in accordance with it.
The glucokinase activity may be determined not by directly measuring glucose-6-phosphate but by measuring the level of Thio-NADH, which is produced when a reporter enzyme, glucose-6-phosphate dehydrogenase produces phosphogluconolactone from glucose-6-phosphate, and based on the level, the degree of glucokinase activation by the compound tested may be determined
In this assay, used was a recombinant human liver GK, which was expressed by E. coli as a FLAG fusion protein therein and was purified by ANTIFLAG M2 AFFINITY GEL (Sigma).
Using a flat-bottomed 96-well plate, the assay was carried out at 30° C. 69 μl of an assay buffer (25 mM Hepes Buffer/pH=7.2, 2 mM MgCl2, 1 mM ATP, 0.5 mM TNAD, 1 mM dithiothreitol) was put into the plate, and 1 μl of a DMSO solution of the compound or DMSO alone as a control was added thereto. Next, 20 μl of an enzyme mixture (FLAG-GK, 20 U/ml G6PDH) cooled in ice was added to it, and 10 μl of a substrate, 25 mM glucose was added to it, and the reaction was initiated (final glucose concentration=2.5 mM).
After the start of the reaction, the increase in the absorbance at 405 nm was measured for 12 minutes at intervals of 30 seconds, and the increase for the first 5 minutes was used for assessing the compound tested. FLAG-GK was added so that the absorbance increase after 5 minutes in the presence of 1% DMSO could be from 0.04 to 0.06.
The OD level of the DMSO control was set as 100%; and the OD level of the test compound at different concentrations was determined. From the OD level at each concentration, Emax (%) and EC50 (μM) were computed and used as the index of the GK-activating potency of the compound.
The comparative test was conducted to compare the compound of example 18, 31 and 32 in this invention with the compound (A) in the patent document 1. The test method in vitro was similar to pharmacological experiment 1 (glucokinase-activating effect).
For the compound `CN(C)CCOc1ncc(Oc2ccc3ncnc(Nc4ccn(C)n4)c3c2)cn1` [Example 7, 6-({2-[2-(dimethylamino)ethoxy]pyrimidin-5-yl}oxy)-N-(1-methyl-1H-pyrazol-3-yl)quinazoline-4-amine], the Emax was 695%.

`CNCCOc1cnc(Oc2ccc3ncnc(Nc4ccn(C)n4)c3c2)c(C)c1` [Example 70, N-methyl-2-{[5-methyl-6-({4-[(1-methyl-1H-pyrazol-3-yl)amino]quinazolin-6-yl}oxy)pyridin-3-yl]oxy}ethanamine hydrochloride]: the Emax is 979%.

For `CN(C)CCN(C)C(=O)c1ccnc(Oc2ccc3ncnc(Nc4ccn(C)n4)c3c2)c1Cl` [Example 67, 3-chloro-N-[2-(dimethylamino)ethyl]-N-methyl-2-({4-[(1-methyl-1H-pyrazol-3-yl)amino]quinazolin-6-yl}oxy)isonicotinamide], the Emax was determined as 598%.

For `CN(C)CCOc1ccc(Oc2ccc3ncnc(Nc4ccn(C)n4)c3c2)cn1` [Example 3, 6-({6-[2-(dimethylamino)ethoxy]pyridin-3-yl}oxy)-N-(1-methyl-1H-pyrazol-3-yl)quinazoline-4-amine], the Emax came out at 918%.

As for `Cc1cnc(Nc2ncnc3ccc(Oc4ncc(OCCCO)cc4Cl)cc23)cn1` [Example 61, 3-{[5-chloro-6-({4-[(5-methylpyrazin-2-yl)amino]quinazolin-6-yl}oxy)pyridin-3-yl]oxy}propan-1-ol], the Emax came to 888%.

The same assay, now with this note: final glucose concentration 2.5 mM; 30° C.; read-out: EC50.
On to `CN(C)CCOc1ncc(Oc2ccc3ncnc(Nc4ccn(C)n4)c3c2)cn1` [Example 7, 6-({2-[2-(dimethylamino)ethoxy]pyrimidin-5-yl}oxy)-N-(1-methyl-1H-pyrazol-3-yl)quinazoline-4-amine], for which the EC50 stood at 6930 nM.

For the compound `CN(C)CCCOc1ccc(Oc2ccc3ncnc(Nc4ccn(C)n4)c3c2)nc1` [Example 4, 6-({5-[3-(dimethylamino)propoxy]pyridin-2-yl}oxy)-N-(1-methyl-1H-pyrazol-3-yl)quinazoline-4-amine], the EC50 was determined as 380 nM.

For `Cc1cnc(Nc2ncnc3ccc(Oc4ncc(OCCN(C)C)cc4C)cc23)cn1` [Example 34, 6-({5-[2-(dimethylamino)ethoxy]-3-methylpyridin-2-yl}oxy)-N-(5-methylpyrazin-2-yl)quinazoline-4-amine hydrochloride], the EC50 came to 70 nM.

Consider `Cn1ccc(Nc2ncnc3ccc(Oc4ncc(OC5CNC5)cc4Cl)cc23)n1` [Example 23, 6-{[5-(azetidin-3-yloxy)-3-chloropyridin-2-yl]oxy}-N-(1-methyl-1H-pyrazol-3-yl)quinazoline-4-amine hydrochloride], for which the EC50 was 50 nM.

As for `CNCCOc1cnc(Oc2ccc3ncnc(Nc4ccn(C)n4)c3c2)c(C)c1` [Example 70, N-methyl-2-{[5-methyl-6-({4-[(1-methyl-1H-pyrazol-3-yl)amino]quinazolin-6-yl}oxy)pyridin-3-yl]oxy}ethanamine hydrochloride], the EC50 was 26 nM.

Turning to `CN(C)CCOc1cnc(Oc2ccc3ncnc(Nc4cnccn4)c3c2)c(Cl)c1` [Example 44, 6-({3-chloro-5-[2-(dimethylamino)ethoxy]pyridin-2-yl}oxy)-N-pyrazin-2-ylquinazoline-4-amine], the EC50 was determined as 260 nM.

On to `CN(C)CCOc1cnc(Oc2ccc3ncnc(Nc4ccn(C)n4)c3c2)c(Cl)c1` [Example 1, 6-({3-chloro-5-[2-(dimethylamino)ethoxy]pyridin-2-yl}oxy)-N-(1-methyl-1H-pyrazol-3-yl)quinazoline-4-amine], for which the EC50 stood at 80 nM.

For the compound `Cc1cc(OCCO)cnc1Oc1ccc2ncnc(Nc3cnn(C)n3)c2c1` [Example 84, 2-{[5-methyl-6-({4-[(2-methyl-2H-1,2,3-triazol-4-yl)amino]quinazolin-6-yl}oxy)pyridin-3-yl]oxy}ethanol], the EC50 stood at 40 nM.

Take `CN(C)CCN(C)C(=O)c1ccnc(Oc2ccc3ncnc(Nc4ccn(C)n4)c3c2)c1Cl` [Example 67, 3-chloro-N-[2-(dimethylamino)ethyl]-N-methyl-2-({4-[(1-methyl-1H-pyrazol-3-yl)amino]quinazolin-6-yl}oxy)isonicotinamide]: the EC50 stood at 6090 nM.

As to `Cc1cnc(Nc2ncnc3ccc(Oc4ncc(OCCN(C)C)cc4Cl)cc23)cn1` [Example 35, 6-({3-chloro-5-[2-(dimethylamino)ethoxy]pyridin-2-yl}oxy)-N-(5-methylpyrazin-2-yl)quinazoline-4-amine], the EC50 amounted to 100 nM.

On to `CN(C)CCOc1ccc(Oc2ccc3ncnc(Nc4ccn(C)n4)c3c2)cn1` [Example 3, 6-({6-[2-(dimethylamino)ethoxy]pyridin-3-yl}oxy)-N-(1-methyl-1H-pyrazol-3-yl)quinazoline-4-amine], for which the EC50 is 1740 nM.

`CN(C)CCCN(C)S(=O)(=O)c1cnc(Oc2ccc3ncnc(Nc4ccn(C)n4)c3c2)c(Cl)c1` [Example 64, 5-chloro-N-[3-(dimethylamino)propyl]-N-methyl-6-({4-[(1-methyl-1H-pyrazol-3-yl)amino]quinazolin-6-yl}oxy)pyridine-3-sulfonamide]: the EC50 came to 1140 nM.

In the case of `CC(C)NCCOc1ccc(Oc2ccc3ncnc(Nc4ccn(C)n4)c3c2)nc1` [Example 5, 6-({5-[2-(isopropylamino)ethoxy]pyridin-2-yl}oxy)-N-(1-methyl-1H-pyrazol-3-yl)quinazoline-4-amine], the EC50 amounted to 260 nM.

As for `Cc1cnc(Nc2ncnc3ccc(Oc4ncc(OCCO)cc4Cl)cc23)cn1` [Example 58, 2-{[5-chloro-6-({4-[(5-methylpyrazin-2-yl)amino]-1quinazolin-6-yl}oxy)pyridin-3-yl]oxy}ethanol], the EC50 is 200 nM.

As for `CC(C)NCCOc1ccc(Oc2ccc3ncnc(Nc4cnn(C)n4)c3c2)nc1` [Example 76, N-(2-{[6-({4-[(2-methyl-2H-1,2,3-triazol-4-yl)amino]quinazolin-6-yl}oxy)pyridin-3-yl]oxy}ethyl)propan-2-amine hydrochloride], the EC50 is 230 nM.

In the case of `CN(C)CCOc1cnc(Oc2ccc3ncnc(Nc4ccn(C)n4)c3c2)nc1` [Example 8, 6-({5-[2-(dimethylamino)ethoxy]pyrimidin-2-yl}oxy)-N-(1-methyl-1H-pyrazol-3-yl)quinazoline-4-amine], the EC50 was 1320 nM.

Turning to `COc1ccc2nc(Nc3ncnc4ccc(Oc5ncc(OCCN(C)C)cc5Cl)cc34)sc2n1` [Example 46, 6-({3-chloro-5-[2-(dimethylamino)ethoxy]pyridin-2-yl}oxy)-N-(5-methoxy-[1,3]thiazolo[5,4-b]pyridin-2-yl)quinazoline-4-amine], the EC50 was 110 nM.

Take `Cc1cnc(Nc2ncnc3ccc(Oc4ccc(OCCNC(C)C)cn4)cc23)cn1` [Example 37, 6-({5-[2-(isopropylamino)ethoxy]pyridin-2-yl}oxy)-N-(5-methylpyrazin-2-yl)quinazoline-4-amine]: the EC50 amounted to 380 nM.

Regarding `Cc1cnc(Nc2ncnc3ccc(Oc4ncc(OCCCO)cc4Cl)cc23)cn1` [Example 61, 3-{[5-chloro-6-({4-[(5-methylpyrazin-2-yl)amino]quinazolin-6-yl}oxy)pyridin-3-yl]oxy}propan-1-ol], the EC50 was determined as 410 nM.

For `CN(C)CCOc1cnc(Cl)c(Oc2ccc3ncnc(Nc4ccn(C)n4)c3c2)c1` [Example 2, 6-({2-chloro-5-[2-(dimethylamino)ethoxy]pyridin-3-yl}oxy)-N-(1-methyl-1H-pyrazol-3-yl)quinazoline-4-amine], the EC50 amounted to 420 nM.

As for `Cc1cnc(Nc2ncnc3ccc(Oc4ncc(OCCNC(C)C)cc4F)cc23)cn1` [Example 40, 6-({3-fluoro-5-[2-(isopropylamino)ethoxy]pyridin-2-yl}oxy)-N-(5-methylpyrazin-2-yl)quinazoline-4-amine hydrochloride], the EC50 is 350 nM.

With `CCNCCCOc1cnc(Oc2ccc3ncnc(Nc4ccn(C)n4)c3c2)c(Cl)c1` [Example 20, 6-({3-chloro-5-[3-(ethylamino)propoxy]pyridin-2-yl}oxy)-N-(1-methyl-1H-pyrazol-3-yl)quinazoline-4-amine hydrochloride], the EC50 came out at 40 nM.

Consider `Cc1cc(OCCNC(C)C)cnc1Oc1ccc2ncnc(Nc3cnn(C)n3)c2c1` [Example 81, N-(2-{[5-methyl-6-({4-[(2-methyl-2H-1,2,3-triazol-4-yl)amino]quinazolin-6-yl}oxy)pyridin-3-yl]oxy}ethyl)propan-2-amine hydrochloride], for which the EC50 amounted to 13 nM.

For `CCN1CC(Oc2cnc(Oc3ccc4ncnc(Nc5ccn(C)n5)c4c3)c(F)c2)C1` [Example 25, 6-({5-[(1-ethylazetidin-3-yl)oxy]-3-fluoropyridin-2-yl}oxy)-N-(1-methyl-1H-pyrazol-3-yl)quinazoline-4-amine hydrochloride], the EC50 came to 230 nM.

With `CN(C)CCN(C)C(=O)c1cnc(Oc2ccc3ncnc(Nc4ccn(C)n4)c3c2)c(Cl)c1` [Example 65, 5-chloro-N-[2-(dimethylamino)ethyl]-N-methyl-6-({4-[(1-methyl-1H-pyrazol-3-yl)amino]quinazolin-6-yl}oxy)nicotinamide], the EC50 came to 410 nM.

`Cc1nsc(Nc2ncnc3ccc(Oc4ccc(OCCN(C)C)cn4)cc23)n1` [Example 47, 6-({5-[2-(dimethylamino)ethoxy]pyridin-2-yl}oxy)-N-(3-methyl-1,2,4-thiadiazol-5-yl)quinazoline-4-amine]: the EC50 is 290 nM.
